{"source": "patent US20230061456A1", "about": "“METHODS AND COMPOSITIONS FOR GENERATING TYPE 1 VESTIBULAR HAIR CELLS” (Decibel Therapeutics, Inc., priority 2020, published 2023)", "key": {"[1]": {"test_system": "hair cells of embryonic utricles from E15.5 CD1 mice", "test": "scRNAseq of cultured embryonic utricles with vitamin A", "assay_type": "cell-based, mouse", "conditions": "E15.5 CD1 utricles; 0.1 μM; 4 days in culture", "experimental": "To evaluate the potential for this pathway to modulate type I hair cell fate, we dissected and cultured embryonic utricles from E15.5 CD1 mice in the presence or absence of 0.1 μM vitamin A (retinoic acid precursor). After 4 days in culture the cells were dissociated, and single cells were captured for scRNAseq. Downstream analysis of the scRNAseq data was performed and representative transcripts used to define type I hair cells (Kcna10 and Lpgat1) and type II hair cells (Mgst3 and DIk2) were selected from the data."}, "[2]": {"test_system": "SPP1 (a Type I HC marker) positive cells in cultured utricles", "test": "SPP1 induction by vitamin A in cultured embryonic and adult utricles", "assay_type": "cell-based, mouse", "conditions": "0.1 μM", "experimental": "To further explore these differences of the effect of the retinoic acid pathway on embryonic and adult hair cells, we compared the effects of 0.1 μM vitamin A on cultured utricles from embryonic and adult animals."}}, "data": [{"substance": "vitamin A", "values": [{"measurement": "expression of transcripts typically associated with type I hair cells (Kcna10, Lpgat1)", "setting": "[1]", "value": "increased expression"}, {"measurement": "expression of transcripts typically associated with type II hair cells (Mgst3, Dlk2)", "setting": "[1]", "value": "decreased expression"}, {"measurement": "number of SPP1-positive cells, embryonic tissue", "setting": "[2]", "value": "dramatically increased"}]}]}
